Laboratory results reported in paper PMC4823711, “Allosteric Partial Inhibition of Monomeric Proteases. Sulfated Coumarins Induce Regulation, not just Inhibition, of Thrombin” (Scientific Reports, 2016).
Where “and” joins values, the source holds several entries; their conditions need not be identical. Equal values may be shown once.

Experiments:
Format in all cases: biochemical
thrombin mutant R97A = target: T1, thrombin mutant R97A (Homo sapiens, UniProt P00734, R456A); assay: Inhibition of thrombin mutant R97A; details: pH 7.4, 25 °C
T1 construct: a group of thrombin mutants containing replacement of either Arg or Lys present in exosite 2 to Ala
Method: (§1) Chromogenic substrate hydrolysis assay was used to measure potency of inhibition, as previously reported. The assay was performed using Flexstation III (Molecular Devices, Sunnyvale, CA) by monitoring substrate hydrolysis at 405 nm. For thrombin and its mutants, 180 μL of buffer (20 mM Tris-HCl, 100 mM NaCl, 2.5 mM CaCl2, 0.1% (polyethylene glycol) PEG 8000, pH 7.4) was added to each well followed by 5 μL of 240 nM thrombin and 10 μL of sulfated coumarin in DMSO to give 0.002 to 250 μM final concentration (or 10 μL of DMSO alone). After incubation for 10 min at 25 °C, 5 μL of 2 mM Spectrozyme TH was added to each well simultaneously and allowed to react for 60 seconds at 25 °C while simultaneously monitoring the reaction to obtain the rate of increase in A405. Identical experimental conditions were used for reactions in the presence of antithrombin, except for 100 nM of antithrombin added prior to the addition of the substrate.

thrombin mutant K169A = target: T2, thrombin mutant K169A (Homo sapiens, UniProt P00734, K537A); assay: Inhibition of thrombin mutant K169A; details: pH 7.4, 25 °C
T2 construct: a group of thrombin mutants containing replacement of either Arg or Lys present in exosite 2 to Ala
Method: as §1

thrombin mutant K235A = target: T3, thrombin mutant K235A (Homo sapiens, UniProt P00734, K610A); assay: Inhibition of thrombin mutant K235A; details: pH 7.4, 25 °C
T3 construct: a group of thrombin mutants containing replacement of either Arg or Lys present in exosite 2 to Ala
Method: as §1

thrombin [1] = target: T4, thrombin (Homo sapiens, UniProt P00734); assay: Chromogenic substrate hydrolysis assay, thrombin inhibition (Spectrozyme TH); parameters: 6 nM plasma α-thrombin; purchased Haematologic Technologies (Essex Junction, VT); details: pH 7.4, 25 °C
Method: as §1
For factor XIa inhibition studies, 85 μL of buffer (50 mM Tris-HCl, 150 mM NaCl, 0.1% PEG 8000, 0.02% Tween 80, pH 7.4) was added to each well, followed by 7 μL of 15.3 nM enzyme and 3 μL of sulfated coumarin (3.75–500 μM final concentration) and incubated for 10 min at 37 °C. After the incubation period, 5 μL of 6.9 mM S-2366 was added to each well simultaneously and allowed to react for 300 sec at 37 °C. For factor Xa assay, 180 μL of buffer (20 mM Tris-HCl, 100 mM NaCl, 2.5 mM CaCl2, 0.1% PEG 8000, 0.02% Tween 80, pH 7.4) was added to each well followed by 5 μL of 43.5 nM enzyme, 10 μL of sulfated coumarin (0.002–250 μM final concentration). After a 10 min incubation, 5 μL of 5 mM Spectrozyme FXa was added to each well simultaneously and allowed to react for 300 seconds at 37 °C. The slopes generated from each experiment were used to calculate the fractional residual activity (Y) at each concentration of the inhibitor, and analyzed using logistic equation 1, in which YM is the maximum efficacy, Y0 is minimum efficacy and HS is the Hill slope.

thrombin mutant R101A = target: T5, thrombin mutant R101A (Homo sapiens, UniProt P00734, R461A); assay: Inhibition of thrombin mutant R101A; details: pH 7.4, 25 °C
T5 construct: a group of thrombin mutants containing replacement of either Arg or Lys present in exosite 2 to Ala
Method: as §1

thrombin mutant R175A = target: T6, thrombin mutant R175A (Homo sapiens, UniProt P00734, R543A); assay: Inhibition of thrombin mutant R175A; details: pH 7.4, 25 °C
T6 construct: a group of thrombin mutants containing replacement of either Arg or Lys present in exosite 2 to Ala
Method: as §1

[2] = target: T7, wtTH (recombinant wild type thrombin) (Homo sapiens, UniProt P00734); assay: Inhibition of recombinant wild type thrombin; details: pH 7.4, 25 °C
T7 construct: the recombinant wild-type thrombin control
Method: as §1

thrombin [3] = target: T4, thrombin; assay: Antithrombin inactivation of thrombin in the presence of sulfated coumarin; parameters: 6 nM plasma α-thrombin; purchased Haematologic Technologies (Essex Junction, VT); host or cells: human plasma
Method: The effect of 3g on the reaction of thrombin (or factor Xa) with antithrombin was studied under pseudo-first order conditions such that [AT]0 ≫ [T]0. A fixed concentration of 6 nM plasma α-thrombin in 20 mM Tris-HCl buffer, pH 7.2, containing 100 mM NaCl, 2.5 mM CaCl2 and 0.1% PEG 8000 at 25 °C was incubated for 128 min with final concentrations of 0, 75, 225, or 675 nM of 3g following which a fixed concentration of 100 nM of antithrombin was added and the reaction allowed to proceed. […] The initial rate of hydrolysis of the Spectrozymes were monitored from the linear increase in A405. The fractional residual enzyme activity at each time point was calculated from the slope, i.e., thrombin activity, measured at the start of the experiment and fitted by the standard exponential decay equation 6 to calculate the observed pseudo-first order rate constant, kOBS, at each concentration of 3g. The intrinsic second-order rate constant of antithrombin inhibition of thrombin (kINT) was calculated using equation 7 and plotted against the concentration of thrombin–3g complex, obtained from quadratic equation 8, to derive the kINT of antithrombin inhibition of thrombin–3g complex.

thrombin mutant R165A = target: T8, thrombin mutant R165A (Homo sapiens, UniProt P00734, R533A); assay: Inhibition of thrombin mutant R165A; details: pH 7.4, 25 °C
T8 construct: a group of thrombin mutants containing replacement of either Arg or Lys present in exosite 2 to Ala
Method: as §1

thrombin mutant R126A = target: T9, thrombin mutant R126A (Homo sapiens, UniProt P00734, R486A); assay: Inhibition of thrombin mutant R126A; details: pH 7.4, 25 °C
T9 construct: a group of thrombin mutants containing replacement of either Arg or Lys present in exosite 2 to Ala
Method: as §1

## O=c1oc2cc(OCCCCn3cc(COc4ccc(-c5c(-c6ccccc6)c6cc(Cl)cc(Cl)c6oc5=O)cc4)nn3)ccc2c(-c2ccccc2)c1-c1ccc(OS(=O)(=O)O)cc1 [3g]
Thrombin mutant R97A
  HS: 2.4
  IC50: 380 ± 70 nM
  ΔY: 41 ± 4%
Thrombin mutant K169A
  HS: 7.6
  IC50: 494 ± 50 nM
  ΔY: 38 ± 3%
Thrombin mutant K235A
  HS: 1.9
  IC50: 471 ± 80 nM
  ΔY: 33 ± 3%
Thrombin [1]
  Hill slope (HS) of thrombin inhibition: 1.2
Thrombin [1]; at saturation
  efficacy of thrombin inhibition (ΔY): 47% and 50%
Thrombin [1]; read-out: IC50 against thrombin
  IC50: 180 nM
Thrombin mutant R101A
  HS: 2.5
  IC50: 255 ± 50 nM
  ΔY: 35 ± 4%
Thrombin mutant R175A
  HS: 2.2
  IC50: 409 ± 80 nM
  ΔY: 42 ± 5%
[2]
  HS: 4.0
  IC50: 413 ± 50 nM
  ΔY: 39 ± 3%
Thrombin [3]; at 100% saturation of thrombin, pH 7.2, 25 °C, thrombin alone 2476 ± 228
  kINT, second order rate constant of antithrombin inhibition of thrombin–3g complex: 821 ± 198 M⁻¹ s⁻¹
Thrombin [3]; kINT in the absence of 3g equated with 100%
  proteolytic activity of thrombin–3g complex: 33 ± 12%
Thrombin mutant R165A
  HS: 4.2
  IC50: 301 ± 20 nM
  ΔY: 28 ± 2%
Thrombin mutant R126A
  HS: 3.2
  IC50: 308 ± 30 nM
  ΔY: 41 ± 2%
